Test results: ChEMBL document CHEMBL1142804, “Design, synthesis, and evaluation of novelly substituted benzimidazole compounds as angiotensin II receptor antagonists” (Bioorg Med Chem Lett, 2005)

Tests used:
Type in all cases: functional
[1] = Noncompetitive antagonism of Angiotensin II receptor in endothelium removed isolated rat aortic ring; (n = 5); details: read-out: pA2 (converted)
[2] = Noncompetitive antagonism of Angiotensin II receptor in endothelium removed isolated rat aortic ring
[3] = Competitive antagonism of Angiotensin II receptor in endothelium removed isolated rat aortic ring
[4] = Competitive antagonism of Angiotensin II receptor in endothelium removed isolated rat aortic ring; (n = 5); details: read-out: pA2 (converted)

Compound | Kb [1] [nM] | pA10 [2] | pA10 [3] | Kb [4] [nM]
CCc1nc2c([N+](=O)[O-])cccc2n1Cc1ccc(-c2ccccc2C(=O)O)cc1 | 100 | 3.4 |  | 
CCCCc1nc2ccccc2n1Cc1ccc(-c2ccccc2C(=O)O)cc1 |  |  | 5.81 | 355
CCOc1nc2cccc(C(=O)O)c2n1Cc1ccc(-c2ccccc2-c2nnn[nH]2)cc1 [CANDESARTAN] |  |  | 7.1 | 9.55
CCCCc1nc2c([N+](=O)[O-])cccc2n1Cc1ccc(-c2ccccc2C(=O)O)cc1 | 3.16 | 1.8 |  | 
CCCc1nc2c([N+](=O)[O-])cccc2n1Cc1ccc(-c2ccccc2C(=O)O)cc1 | 79.4 | 2.9 |  | 
CCCCc1nc(Cl)c(CO)n1Cc1ccc(-c2ccccc2-c2nnn[nH]2)cc1 [LOSARTAN] |  |  | 6.5 | 39.8
CCCCc1nc2c(N)cccc2n1Cc1ccc(-c2ccccc2C(=O)O)cc1 |  |  | 6.9 | 15.8
CCOCc1nc2c([N+](=O)[O-])cccc2n1Cc1ccc(-c2ccccc2C(=O)O)cc1 | 50.1 | 1.7 |  | 
